Experimental data: patent US3932633A, “Novel o-triazenobenzamides, in treating aggressive behavior” (Uniroyal Inc., priority 1974, dated 1976)
Like-named read-outs stand apart in the source and are kept apart here.

Columns and labels:
[1] = system: isolation-induced fighting in mice; assay: Isolated fighting mouse (IFM) test / isolated mouse aggression; assay type: in vivo; details: for ED50 / responders at 30 mg/kg: Mus musculus, ip; for responders at 30 mg/kg: 30 mg/kg intraperitoneally, at least 40% protected = active
Description: *IFM - Isolated fighting mouse test at a dose of 30 mg/kg
intraperitoneally; those compounds which protected at least 40% of the
(§1) Two models of aggression are used in the primary screening for neuroleptics, (1) isolation-induced fighting in mice (IFM), and (2) aggression induced in rats by destruction of the septal area (septal rat). Compounds are first submitted, however, to the neuropharmacological profile, a standard procedure (see, e.g., Samuel Irwin, Science, 136, 123 [1962]) employed in screening a compound to determine its usefulness as a central nervous system active compound. Those agents which cause depression over a wide dose range are then submitted to the first anti-aggression screen, the isolation-induced fighting mouse assay.
(§2) The compound of Example 6 was compared with chlorpromazine and chlordiazepoxide for its anti-aggressive activity. Three models of experimentally-induced aggression in rodents were studied (R. D. Sofia, Life Science, 8: 705, 1969).

[2] = Neurotoxicity (rotating rod / rotorod), mice; details: mouse, in vivo, ip; I.P., mice; 95% confidence limits; read-out: NTD50
Description: (§3) In the neurotoxicity test, the value (NTD50) is defined as the dose necessary to cause 50% of mice or rats trained to walk a rotating wooden rod (5 rpm) to fall at the time of peak effect, and is a measure of drug effects on motor function or central nervous system toxicity. The results set forth in Table III were obtained when the compound of Example 6 was tested against chlorpromazine and chlordiazepoxide.

[3] = Neurotoxicity (rotating rod / rotorod), rats; details: rat, in vivo, ip; I.P., rats; 95% confidence limits; read-out: NTD50
Description: as §3

[4] = system: electroshock-induced fighting in mice; assay: Electroshock-induced fighting in mice; assay type: in vivo, mouse; details: for ED50: Mus musculus, ip, read-out: ED50 (95% Confidence Limits), Electroshock-Induced Fighting in Mice; for NTD50/ED50, Electroshock-Induced Fighting in Mice: i.p. administration
Description: as §2

[5] = system: aggression induced in rats by destruction of the septal area; assay: Septal rat aggression; assay type: in vivo; details: for ED50: Rattus norvegicus, ip, read-out: ED50 (95% Confidence Limits), Septal Rat Aggression
Description: as §1, §2

[6] = system: maximal electroshock seizures in mice; assay: Maximal electroshock seizures; assay type: in vivo, mouse
Description: Groups of ten mice each were injected i.p. with a vehicle and the compound of Example 6 and placed in individual Plexiglas squares. Thirty minutes after i.p. injection, each mouse was administered an electric shock transcorneally at 50mA intensity, 0.2 seconds duration (Swinyard, et al, J. Pharmacol. Exptl. Ther., 106: 319, 1952). The criterion for activity is protection against tonic extension of the hind limbs. The dose necessary to protect 50% of the mice (MES50) was determined.

[7] = system: pentylenetetrazol seizures in mice; assay: Pentylenetetrazol seizures; assay type: in vivo, mouse; details: for ED50: Mus musculus, ip, 1 h
Description: In this test (modification of the method introduced by Everett and Richard, J. Pharmacol. Exptl. Ther., 81: 402, 1944), groups of ten mice each are pretreated i.p. with vehicle and various doses of the compound of Example 6 and placed in Plexiglas squares. Thirty minutes later, all mice are injected subcutaneously (s.c.) with pentylenetetrazol at 125 mg/kg and observed immediately thereafter for convulsions and death for a period of 1 hour.

[8] = system: d-amphetamine aggregation-induced lethality; assay: d-Amphetamine aggregation; assay type: in vivo; details: inactive at: Example 6 200 mg/kg, chlordiazepoxide 50 mg/kg
Description: Protection from d-amphetamine aggregation-induced lethality is usually afforded by alpha-adrenergic-blocking agents such as chlorpromazine, phenoxybenzamine, etc. Percent protection was determined and an ED50 value was calculated.

[9] = system: dihydroxyphenylalanine-induced fighting behavior in mice; assay: Dihydroxyphenylalanine (DOPA) fighting test; assay type: in vivo, mouse; details: 200 mg/kg d1-DOPA; pargyline 80 mg/kg, Example 6 100 mg/kg, chlorpromazine 5 mg/kg, chlordiazepoxide 15 mg/kg
Description: It is well known that when monoamine oxidase inhibitors are administered prior to the administration of d1-DOPA, which is a noradrenaline precursor, convulsions or excitation occur. In this study, the MAO inhibitor pargyline (80 mg/kg) was given 1, 2 and 4 hours prior to administering 200 mg/kg of d1-DOPA. […] Thus, in this procedure, none of the agents tested appears to be a MAO inhibitor.

5 day lethality, mice = details: mouse, in vivo, Mice, 5 day, 10 per cage, read-out: LD50 (95% Confidence Limits)
Description: (§4) Table VIII gives the results of 5 day lethality studies following single injections of drug. All values presented represent tests conducted when animals were housed 10 per cage. The compound of Example 6 was compared with chlorpromazine and chlordiazepoxide. In these and all the preceding calculations, the method of Litchfield and Wilcoxon (J. Pharmacol. Exptl. Ther., 96: 99, 1949) was used to estimate effective (ED50) or lethal (LD50) dose.

5 day lethality, rats = details: rat, in vivo, ip; Rats, I.P., 5 day, 10 per cage; read-out: LD50 (95% Confidence Limits)
Description: as §4

[10] = system: hissing response elicited by hypothalamic stimulation in cats; details: Baxter, Life Sciences, 3: 531, 1964, cited from earlier work
[11] = system: spontaneous locomotor activity in rats; assay: Spontaneous locomotor activity; assay type: in vivo; details: Rattus norvegicus, ip, 0.5 h, read-out: SD50 (dose causing 50% reduction from control activity)
[12] = system: isolation-induced fighting in mice; assay: Isolated fighting mouse (IFM) test / isolated mouse aggression; assay type: in vivo; details: po, 30 mg/kg, per os, read-out: IFM % protected
[13] = i.p. administration, read-out: ED50 (IFM)

CNC1=Nc2ccc(Cl)cc2C(c2ccccc2)=[N+]([O-])C1 [Chlordiazepoxide, chlordiazepoxide]
ED50 ([1]; read-out: ED50 (95% Confidence Limits), Isolated Mouse Aggression): 20.5 mg/kg
NTD50/ED50, Isolated Mouse Aggression ([1]; i.p. administration): 0.7
TD50 [2]: 13.8 mg/kg
TD50 [3]: 4.3 mg/kg
ED50 [4]: 4.2 mg/kg
NTD50/ED50, Electroshock-Induced Fighting in Mice [4]: 3.3
ED50 [5]: 25.8 mg/kg
NTD50/ED50, Septal Rat Aggression ([5]; i.p. administration): 0.6
ED50 ([6]; Mus musculus, ip, 0.5 h, read-out: MES50): 14.3 mg/kg
ED50 ([7]; read-out: MET50, convulsions): 7.1 mg/kg
ED50 ([7]; read-out: MET50, death): 2.6 mg/kg
ED50, d-amphetamine aggregation [8]: Inactive
excitation, salivation, jumping, and fighting with d1-DOPA [9]: these symptoms were not observed
LD50 at 120 h (5 day lethality, mice; ip, I.P.): 400 mg/kg
LD50 at 120 h (5 day lethality, mice; po, P.O.): 810 mg/kg
LD50 at 120 h (5 day lethality, rats): 265 mg/kg
effect on hypothalamic threshold / rage response [10]: increase the threshold of the hypothalamus to electrical stimulation
effect on hypothalamic threshold / rage response ([10]; listed as chlordiazepoxide): specific in inhibiting this response

CN(C)CCCN1c2ccccc2Sc2ccc(Cl)cc21 [Chlorpromazine, chlorpromazine]
ED50 ([1]; i.p. administration, read-out: ED50 (95% Confidence Limits), Isolated Mouse Aggression): 2.8 mg/kg
NTD50/ED50, Isolated Mouse Aggression ([1]; i.p. administration): 0.3
ED50 [11]: 1.7 mg/kg
TD50 [2]: 0.7 mg/kg
TD50 [3]: 5.3 mg/kg
ED50 [4]: 5.5 mg/kg
NTD50/ED50, Electroshock-Induced Fighting in Mice [4]: 0.1
ED50 ([5]; i.p. administration): 10.7 mg/kg
NTD50/ED50, Septal Rat Aggression ([5]; i.p. administration): 0.5
MES50 ([6]; I.P., mice, inactive at: Example 6 200 mg/kg, chlorpromazine 25 mg/kg): Inactive
MET50 ([7]; I.P., mice, inactive at: Example 6 200 mg/kg, chlorpromazine 100 mg/kg): Inactive
ED50 [8]: 1.2 mg/kg
excitation, salivation, jumping, and fighting with d1-DOPA [9]: these symptoms were not observed
LD50 at 120 h (5 day lethality, mice; ip, I.P.): 136 mg/kg
LD50 at 120 h (5 day lethality, mice; po, P.O.): 280 mg/kg
LD50 at 120 h (5 day lethality, rats): 138 mg/kg

NC(=O)c1ccccc1N=NNc1ccccc1C(N)=O [Example 1, 2,2'-diazoaminobenzamide]
responders at 30 mg/kg [1]: 100%

NC(=O)c1ccccc1N=NNc1nccs1 [Example 2, 2-[3-(2-thiazolyl)-2(or 1)-triazeno]-benzamide]
responders at 30 mg/kg [1]: 80%
ED50 [1, 13]: 9.4 mg/kg

CCn1c2ccccc2c2cc(NN=Nc3ccccc3C(N)=O)ccc21 [Example 4, 2-[3-(9-ethyl-3-carbazolyl)-2(or 1)-triazeno]-benzamide]
responders at 30 mg/kg [1]: 100%

Cc1nc(NN=Nc2ccccc2C(N)=O)sc1C(=O)N1CCOCC1 [Example 5, 2-[3-(4-methyl-5-morpholinocarbonyl-2-thiazolyl)-2(or 1)-triazeno]-benzamide]
responders at 30 mg/kg [1]: 100%
ED50 [1, 13]: 6.7 mg/kg

Cc1ccc(NN=Nc2ccccc2C(N)=O)cc1 [Example 8, 2-[3-p-tolyl-1(or 2)-triazeno]-benzamide]
responders at 30 mg/kg [1]: 100%

Cc1cc(C)c(NC(=O)c2sc(NN=Nc3ccccc3C(N)=O)nc2C)c(C)c1 [Example 9]
responders at 30 mg/kg [1]: 60%

COC(=O)c1ccccc1NN=Nc1ccccc1C(N)=O [Example 10]
responders at 30 mg/kg [1]: 80%
ED50 [1, 13]: 6 mg/kg

NC(=O)c1ccccc1N=NNc1ccc(Cl)cc1 [Example 11]
responders at 30 mg/kg [1]: 40%

NC(=O)c1ccccc1N=NNc1ccc([N+](=O)[O-])cc1 [Example 12]
responders at 30 mg/kg [1]: 100%

Cc1ccccc1NN=Nc1ccccc1C(N)=O [Example 13]
responders at 30 mg/kg [1]: 100%

Cc1cccc(NN=Nc2ccccc2C(N)=O)c1 [Example 14]
responders at 30 mg/kg [1]: 80%

NC(=O)c1ccccc1N=NNc1cccc([N+](=O)[O-])c1 [Example 15]
responders at 30 mg/kg [1]: 100%

Cc1ccc(NN=Nc2ccccc2C(N)=O)cc1C [Example 16]
responders at 30 mg/kg [1]: 60%

Cc1nc(NN=Nc2ccccc2C(N)=O)sc1C(=O)Nc1ccccc1Cl [Example 17]
responders at 30 mg/kg [1]: 60%

Cc1nc(NN=Nc2ccccc2C(N)=O)sc1C(=O)Nc1ccccc1 [Example 18]
responders at 30 mg/kg [1]: 60%

NC(=O)c1ccccc1N=NNc1cccnc1 [Example 19]
responders at 30 mg/kg [1]: 80%

NC(=O)c1ccccc1N=NNc1ccc2ncccc2c1 [Example 20]
responders at 30 mg/kg [1]: 40%

NC(=O)c1ccccc1N=NNc1cccnc1Cl [Example 21]
responders at 30 mg/kg [1]: 40%

COc1ccc(NN=Nc2ccccc2C(N)=O)cn1 [Example 22]
responders at 30 mg/kg [1]: 100%

NC(=O)c1ccccc1N=NNc1cccc2c1C(=O)c1ccccc1C2=O [Example 23]
responders at 30 mg/kg [1]: 40%

COc1ccc(NN=Nc2ccccc2C(N)=O)cc1 [Example 24]
responders at 30 mg/kg [1]: 100%

COc1ccccc1NN=Nc1ccccc1C(N)=O [Example 25]
responders at 30 mg/kg [1]: 60%

CNC(=O)c1ccccc1N=NNc1ccc(C)cc1 [Example 26]
responders at 30 mg/kg [1]: 100%

CNC(=O)c1ccccc1N=NNc1ccc(C)c(Cl)c1 [Example 27]
responders at 30 mg/kg [1]: 80%

CCCCNC(=O)c1ccccc1N=NNc1ccc(C)c(Cl)c1 [Example 28]
responders at 30 mg/kg [1]: 60%

CNC(=O)c1ccccc1N=NNc1nc(C)c(C(=O)NCc2ccccc2)s1 [Example 29]
responders at 30 mg/kg [1]: 100%

CCNC(=O)c1ccccc1N=NNc1nc(C)c(C(=O)NCc2ccccc2)s1 [Example 30]
responders at 30 mg/kg [12]: 60%

Cc1nc(NN=Nc2ccccc2C(=O)N(C)C)sc1C(=O)NCc1ccccc1 [Example 31]
responders at 30 mg/kg [1]: 60%

Cc1ccc(NN=Nc2ccccc2C(=O)Nc2ccccc2)cc1 [Example 32]
responders at 30 mg/kg [1]: 60%

COc1ccc([N+](=O)[O-])cc1NN=Nc1ccccc1C(N)=O [Example 33]
responders at 30 mg/kg [1]: 100%
ED50 [1, 13]: 14 mg/kg

COc1cc([N+](=O)[O-])c(C)cc1NN=Nc1ccccc1C(N)=O [Example 34]
responders at 30 mg/kg [1]: 100%
ED50 [1, 13]: 14.5 mg/kg

NC(=O)c1ccccc1N=NNc1ccccc1Cl [Example 35]
responders at 30 mg/kg [1]: 80%
ED50 [1, 13]: 5.2 mg/kg

NC(=O)c1ccccc1N=NNc1cccc(Cl)c1 [Example 36]
responders at 30 mg/kg [1]: 40%

COc1ccc(Cl)cc1NN=Nc1ccccc1C(N)=O [Example 37]
responders at 30 mg/kg [1]: 60%

CCOc1ccc(NN=Nc2ccccc2C(N)=O)cc1 [Example 38]
responders at 30 mg/kg [1]: 40%

Cc1c(Cl)cccc1NN=Nc1ccccc1C(N)=O [Example 39]
responders at 30 mg/kg [1]: 40%

C#CCN(C)Cc1ccccc1 [pargyline]
excitation, salivation, jumping, and fighting with d1-DOPA [9]: excitation, salivation, jumping, and fighting
